From ChEMBL document CHEMBL5046266, “Synthesis and Evaluation of Structurally Diverse C-2-Substituted Thienopyrimidine-Based Inhibitors of the Human Geranylgeranyl Pyrophosphate Synthase” (J Med Chem, 2022)

Legend:
[1] = Terminal half life in CD rat at 3 mg/kg/day, IV administered measured up to 24 hrs by LC-MS/MS analysis; assay type: ADME, organism-based; details: in vivo, read-out: beta t1/2 (converted)
[2] = Hepatotoxicity in C57BL/6 mouse assessed as effect on gamma glutamyl transferase level at 0.5 mg/kg, iv administered measured after 7 days; assay type: toxicity, organism-based; details: in vivo, 168 h, time 7 day
[3] = Hepatotoxicity in C57BL/6 mouse assessed as effect on alkaline phosphatase level at 5 mg/kg, iv administered measured after 7 days; assay type: toxicity, organism-based; details: in vivo, 168 h, time 7 day
[4] = Hepatotoxicity in C57BL/6 mouse assessed as effect on aspartate aminotransferase level at 10 mg/kg, iv administered measured after 7 days; assay type: toxicity, organism-based; details: in vivo, 168 h, time 7 day
[5] = test system: Mononuclear cell line; assay type: toxicity, cell-based; details: human, 72 h, 1 µM
[6] = Hepatotoxicity in C57BL/6 mouse assessed as effect on bilirubin level at 5 mg/kg, iv administered measured after 7 days; assay type: toxicity, organism-based; details: in vivo, 168 h, time 7 day
[7] = Metabolic stability in human microsomes assessed as intrinsic clearance; assay type: ADME, Microsome; details: read-out: CLH
[8] = test system: Mononuclear cell line; assay type: toxicity, cell-based; details: human, 72 h, 0.01 µM, dose 10 nM
[9] = Intrinsic clearance in CD rat plasma at 3 mg/kg/day, IV administered measured up to 24 hrs by LC-MS/MS analysis; assay type: ADME, organism-based; details: in vivo
[10] = Hepatotoxicity in C57BL/6 mouse assessed as effect on alanine aminotransferase level at 0.5 mg/kg, iv administered measured after 7 days; assay type: toxicity, organism-based; details: in vivo, 168 h, time 7 day
[11] = Volume of distribution at steady state in CD rat at 3 mg/kg/day, IV administered measured up to 24 hrs by LC-MS/MS analysis; assay type: ADME, organism-based; details: in vivo, read-out: Vdss
[12] = Metabolic stability in mouse microsomes assessed as intrinsic clearance; assay type: ADME, Microsome
[13] = AUC (0 to infinity) in CD rat plasma at 3 mg/kg/day, IV administered measured up to 24 hrs by LC-MS/MS analysis; assay type: ADME, organism-based; set-up: route intravenous, dose 3 mg/kg/day, time <=24
[14] = Hepatotoxicity in C57BL/6 mouse assessed as effect on bilirubin level at 0.5 mg/kg, iv administered measured after 7 days; assay type: toxicity, organism-based; details: in vivo, 168 h, time 7 day
[15] = Hepatotoxicity in C57BL/6 mouse assessed as effect on gamma glutamyl transferase level at 1 mg/kg, iv administered measured after 7 days; assay type: toxicity, organism-based; details: in vivo, 168 h, time 7 day
[16] = Hepatotoxicity in C57BL/6 mouse assessed as effect on amylase level at 1 mg/kg, iv administered measured after 7 days; assay type: toxicity, organism-based; details: in vivo, 168 h, time 7 day
[17] = Metabolic stability in rat microsomes assessed as intrinsic clearance; assay type: ADME, Microsome; details: read-out: CLH
[18] = MRT in CD rat plasma at 3 mg/kg/day, IV administered measured up to 24 hrs by LC-MS/MS analysis; assay type: ADME, organism-based
[19] = Toxicity in C57BL/6 mouse assessed as effect on aspartate aminotransferase level in serum at 5 mg/kg, iv measured after 7 days; assay type: organism-based; details: in vivo, 168 h, time 7 day
[20] = Hepatotoxicity in C57BL/6 mouse assessed as effect on alanine aminotransferase level at 10 mg/kg, iv administered measured after 7 days; assay type: toxicity, organism-based; details: in vivo, 168 h, time 7 day
[21] = Hepatotoxicity in C57BL/6 mouse assessed as effect on amylase level at 0.5 mg/kg, iv administered measured after 7 days; assay type: toxicity, organism-based; details: in vivo, 168 h, time 7 day
[22] = Hepatotoxicity in C57BL/6 mouse assessed as effect on alkaline phosphatase level at 10 mg/kg, iv administered measured after 7 days; assay type: toxicity, organism-based; details: in vivo, 168 h, time 7 day
[23] = Hepatotoxicity in C57BL/6 mouse assessed as effect on bilirubin level at 10 mg/kg, iv administered measured after 7 days; assay type: toxicity, organism-based; details: in vivo, 168 h, time 7 day
[24] = Hepatotoxicity in C57BL/6 mouse assessed as effect on gamma glutamyl transferase level at 5 mg/kg, iv administered measured after 7 days; assay type: toxicity, organism-based; details: in vivo, 168 h, time 7 day
[25] = Hepatotoxicity in C57BL/6 mouse assessed as effect on alanine aminotransferase level at 1 mg/kg, iv administered measured after 7 days; assay type: toxicity, organism-based; details: in vivo, 168 h, time 7 day
[26] = Hepatotoxicity in C57BL/6 mouse assessed as effect on gamma glutamyl transferase level at 10 mg/kg, iv administered measured after 7 days; assay type: toxicity, organism-based; details: in vivo, 168 h, time 7 day
[27] = Hepatotoxicity in C57BL/6 mouse assessed as effect on aspartate aminotransferase level at 5 mg/kg, iv administered measured after 7 days; assay type: toxicity, organism-based; details: in vivo, 168 h, time 7 day
[28] = test system: Mononuclear cell line; assay type: toxicity, cell-based; details: human, 72 h, 0.001 µM, dose 1 nM
[29] = Hepatotoxicity in C57BL/6 mouse assessed as effect on amylase level at 10 mg/kg, iv administered measured after 7 days; assay type: toxicity, organism-based; details: in vivo, 168 h, time 7 day
[30] = Toxicity in C57BL/6 mouse assessed as effect on aspartate aminotransferase level in serum at 0.5 mg/kg, iv measured after 7 days; assay type: organism-based; details: in vivo, 168 h, time 7 day
[31] = Hepatotoxicity in C57BL/6 mouse assessed as effect on amylase level at 5 mg/kg, iv administered measured after 7 days; assay type: toxicity, organism-based; details: in vivo, 168 h, time 7 day
[32] = AUC (0 to t) in CD rat plasma at 3 mg/kg/day, IV administered measured up to 24 hrs by LC-MS/MS analysis; assay type: ADME, organism-based; set-up: route intravenous, dose 3 mg/kg/day, time <=24
[33] = Hepatotoxicity in C57BL/6 mouse assessed as effect on alkaline phosphatase level at 1 mg/kg, iv administered measured after 7 days; assay type: toxicity, organism-based; details: in vivo, 168 h, time 7 day
[34] = Hepatotoxicity in C57BL/6 mouse assessed as effect on aspartate aminotransferase level at 0.5 mg/kg, iv administered measured after 7 days; assay type: toxicity, organism-based; details: in vivo, 168 h, time 7 day
[35] = Hepatotoxicity in C57BL/6 mouse assessed as effect on aspartate aminotransferase level at 1 mg/kg, iv administered measured after 7 days; assay type: toxicity, organism-based; details: in vivo, 168 h, time 7 day
[36] = test system: Mononuclear cell line; assay type: toxicity, cell-based; details: human, 72 h, 10 µM
[37] = Hepatotoxicity in C57BL/6 mouse assessed as effect on alkaline phosphatase level at 0.5 mg/kg, iv administered measured after 7 days; assay type: toxicity, organism-based; details: in vivo, 168 h, time 7 day
[38] = Hepatotoxicity in C57BL/6 mouse assessed as effect on bilirubin level at 1 mg/kg, iv administered measured after 7 days; assay type: toxicity, organism-based; details: in vivo, 168 h, time 7 day
[39] = Hepatotoxicity in C57BL/6 mouse assessed as effect on alanine aminotransferase level at 5 mg/kg, iv administered measured after 7 days; assay type: toxicity, organism-based; details: in vivo, 168 h, time 7 day

COc1ccc(NC(=O)c2cccc(-c3nc(NC(P(=O)(O)O)P(=O)(O)O)c4ccsc4n3)c2)cc1F
half-life [1]: 5.34 h | Activity [2]: Non-Toxic | Activity [3]: Non-Toxic | Activity [4]: Non-Toxic | Activity [5]: 17.8% | Activity [6]: Non-Toxic | microsomal CLint [7]: 7 µL/min/mg | Activity [8]: 77.2% | CL [9]: 0.567 mL/min/kg | Activity [10]: Non-Toxic | Vd [11]: 0.211 L/kg | CLH [12]: 27 µL/min/mg | AUC(0-inf) [13]: 155 µM·h | Activity [14]: Non-Toxic | Activity [15]: Non-Toxic | Activity [16]: Non-Toxic | microsomal CLint [17]: 13 µL/min/mg | MRT [18]: 6.21 h | Activity [19]: Non-Toxic | Activity [20]: Non-Toxic | Activity [21]: Non-Toxic | Activity [22]: Non-Toxic | Activity [23]: Non-Toxic | Activity [24]: Non-Toxic | Activity [25]: Non-Toxic | Activity [26]: Non-Toxic | Activity [27]: Non-Toxic | Activity [28]: 79.7% | Activity [29]: Non-Toxic | Activity [30]: Non-Toxic | Activity [31]: Non-Toxic | AUC(0-t) at 24 h [32]: 149 µM·h | Activity [33]: Non-Toxic | Activity [34]: Non-Toxic | Activity [35]: Non-Toxic | Activity [36]: 21.3% | Activity [37]: Non-Toxic | Activity [38]: Non-Toxic | Activity [39]: Non-Toxic
